Assay results: patent US11142554B2 (MASSACHUSETTS INSTITUTE OF TECHNOLOGY, priority 2015, dated 2021)
Positions of bridges follow the written chain, without caps; N, C: chain ends. Non-standard residues stand in square brackets, D forms with d. Residues, ends and D or L forms follow the SMILES beside them. S5 = C=CCCC[C@](C)(N)C(=O)O; Nle = CCCC[C@H](N)C(=O)O

How the values were obtained:
[1] = test system: H929 multiple myeloma cells; assay: Cell viability by CellTiter-Glo (CTG) assay; format: cell-based; conditions: 24 hours
From the text: (§1) Data are mean and s.d. for experiments performed in at least duplicate. Vehicle is DMSO.

MDA-MB231 cells = assay: Cell viability by CellTiter-Glo (CTG) assay; format: cell-based, human; conditions: 24 hours
From the text: as §1

Mcl-1 [2] = target: T1, Mcl-1 (Homo sapiens, UniProt Q07820); assay: Receptor binding IC50 of M1 and stapled M1 peptides (Table 2); conditions: among M1 and its stapled variants
T1 sequence (Q07820 whole entry): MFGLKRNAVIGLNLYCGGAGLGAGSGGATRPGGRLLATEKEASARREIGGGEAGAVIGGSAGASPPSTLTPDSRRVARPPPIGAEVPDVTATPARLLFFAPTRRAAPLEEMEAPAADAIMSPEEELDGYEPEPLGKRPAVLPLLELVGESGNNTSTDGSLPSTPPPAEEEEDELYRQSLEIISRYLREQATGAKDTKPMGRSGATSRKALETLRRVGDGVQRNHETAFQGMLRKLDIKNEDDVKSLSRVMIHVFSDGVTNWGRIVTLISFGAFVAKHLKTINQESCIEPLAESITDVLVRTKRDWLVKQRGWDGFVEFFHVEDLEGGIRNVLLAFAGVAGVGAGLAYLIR
From the text: Peptides 1-10 are SEQ ID NOs: 46, 47, 9, 48, 49, 50, 7, 51, 52, and 8 respectively.

MEF cells = assay: Lactate dehydrogenase (LDH) release assay, non-specific cell lysis; format: cell-based
From the text: FIG. 5|Results of studies assessing non-specific cell-lysis by internally cross-linked peptides. Lactate dehydrogenase release assays (LDH) identified membrane-disruptive peptides 3 (SEQ ID NO:9) and 7 (SEQ ID NO:7); tested in MEF cells. Peptides 7, 10, 3, and 11-20 are SEQ ID NOs: 7, 8, 9, and 10-19 respectively.
Additional studies examined the non-specific cell lysis activity of peptide 3 (SEQ ID NO:9) (M1 SAHBd) and certain sequence variants of peptide 3 (SEQ ID NO:9) (M1 SAHBd).

[3] = Circular dichroism analysis of alpha-helicity; format: physicochemical; conditions: Tris buffer pH 7.4
From the text: FIG. 4|Results of studies assessing the alpha-helicity of various internally cross-linked peptides. Circular dichroism analysis illustrating helicity of stapled peptides 3 (SEQ ID NO:9), 7 (SEQ ID NO:7), and 10 (SEQ ID NO:8) and the non-stapled peptide of the amino acid sequence […] (SEQ ID NO:54), dissolved in Tris buffer pH.7.4.

[4] = target: T2, interaction between Bak and Mcl-1 (Homo sapiens, UniProt Q07820); assay: Mcl-1 immunoprecipitation and Bak western analysis in OCI-AML3 cell lysate; format: biochemical
T2 construct: endogenous in cells; host or cells: OCI-AML3 cell lysate
T2 sequence (Q07820 whole entry): as above
From the text: The same blot was probed with the Bak (˜28 kD) antibody.

Bfl-1 = conditions: reported in the literature; cited from earlier work
MDA-MB-231 cells = test system: MDA-MB-231 cells
Experimental: (§2) A whole-cell BH3 profiling assay was used to test the specificity of our Mcl-1-binding peptides in several cell lines with differing dependencies on Bcl-2, Mcl-1, Bcl-xL, or Bfl-1. In this assay, permeabilized cells were treated with increasing doses of BH3 peptides, and mitochondrial outer membrane permeabilization (MOMP) was monitored using the dye JC-1 (see below). Mcl-1/Myc 2640 is an engineered murine leukemia cell line overexpressing murine Mcl-1 and Myc, and Bcl-2/Myc 2924 is a similarly engineered cell line overexpressing human Bcl-2.
(§3) Assay plates were produced by serial dilution of each peptide from 200 μM to 0.2 nM using 10-fold dilutions in DTEB (Derived from Trehalose Experimental Buffer: 135 mM trehalose, 50 mM KCl, 20 μM EDTA, 20 μM EGTA, 0.1% BSA, 5 mM succinate, 10 mM HEPES-KOH pH 7.5) containing 0.005% w/v digitonin, 10 mM 2-mercaptoethanol, 2 μM JC-1, and 20 mg mL-1 oligomycin. Triplicate wells for each peptide were made for each cell line by adding 15 μL of the peptide dilutions to each well of a black, untreated 384-well plate. Control wells containing no peptide or 20 μM FCCP (carbonyl cyanide-4(trifluoromethoxy) phenylhydrazone, a chemical uncoupler of oxidative phosphorylation) were included for zero and complete depolarization, respectively. Multiple plates were produced from the same stock and frozen at −80 ° C. for later use. Frozen plates were brought to RT prior to use, cells were suspended in DTEB at a density of 1.34×10^6 cells/mL, and 15 μL of cell suspension was added to each well of the dilution series to yield wells ranging from 0.1 nM to 100 μM peptide and 20000 cells/well. Fluorescence of JC-1 aggregates was measured at 590 nm with 545 nm excitation on a Tecan Safire2 at 5 min intervals for 3 h. The area under each signal-vs-time curve was calculated and normalized to the untreated and FCCP values to produce the percent depolarization. Curves were plotted as the log [peptide] vs percent depolarization, with sigmoidal dose—response curves fitted using Graphpad PRISM 6.

Bcl-2/Myc 2924 cells = test system: Bcl-2/Myc 2924 cells
Experimental: as §2, §3

Mcl-1/Myc 2640 cells = test system: Mcl-1/Myc 2640 cells
Experimental: as §2, §3

[5] = test system: Human multiple myeloma cell lines dependent upon Mcl-1
Experimental: as §2, §3

Mcl-1 [6] = target: T1, Mcl-1; assay: Competition of unlabeled peptides with a fluorescently labeled Bim variant; conditions: unlabeled peptide
Bcl-xL = Bcl-xL (Homo sapiens, UniProt Q07817); conditions: reported in the literature; cited from earlier work
Chain of Bcl-xL (Q07817 whole entry, species assumed): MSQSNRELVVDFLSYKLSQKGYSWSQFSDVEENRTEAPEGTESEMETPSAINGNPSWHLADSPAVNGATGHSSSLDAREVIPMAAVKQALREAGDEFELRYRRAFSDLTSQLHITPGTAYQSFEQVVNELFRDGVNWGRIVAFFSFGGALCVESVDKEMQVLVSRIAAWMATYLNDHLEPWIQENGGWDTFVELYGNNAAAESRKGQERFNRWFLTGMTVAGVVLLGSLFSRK

Bcl-2 = Bcl-2 (Homo sapiens, UniProt P10415); conditions: reported in the literature; cited from earlier work
Chain of Bcl-2 (P10415 whole entry, species assumed): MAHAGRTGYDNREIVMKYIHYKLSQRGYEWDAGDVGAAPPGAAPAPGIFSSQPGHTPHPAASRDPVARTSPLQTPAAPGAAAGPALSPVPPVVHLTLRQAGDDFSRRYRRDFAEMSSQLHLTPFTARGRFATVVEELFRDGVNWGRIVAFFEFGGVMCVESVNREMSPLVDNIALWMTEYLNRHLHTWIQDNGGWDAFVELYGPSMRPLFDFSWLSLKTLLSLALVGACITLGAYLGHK

Bcl-w = target: T3, Bcl-w (Homo sapiens, UniProt Q92843); conditions: reported in the literature; cited from earlier work
T3 sequence (Q92843 1-193): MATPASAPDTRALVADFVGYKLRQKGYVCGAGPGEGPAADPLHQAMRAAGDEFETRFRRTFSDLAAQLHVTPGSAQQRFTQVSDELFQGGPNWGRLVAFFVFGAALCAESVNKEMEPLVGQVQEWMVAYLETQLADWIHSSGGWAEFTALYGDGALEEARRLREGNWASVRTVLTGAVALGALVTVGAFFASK

For CN(C)CC[C@H](CSc1ccccc1)Nc1ccc(S(=O)(=O)NC(=O)c2ccc(N3CCN(Cc4ccccc4-c4ccc(Cl)cc4)CC3)cc2)cc1[N+](=O)[O-] [ABT-737], the “effect on cell viability (in words)” value [1] was “not active” and the “effect on cell viability (in words)” value (MDA-MB231 cells) was “clear dose-dependent reduction in cell viability”.

In the case of CCCC[C@H](NC(=O)[C@H](Cc1c[nH]c2ccccc12)NC(=O)[C@@H](NC(C)=O)[C@@H](C)CC)C(=O)N[C@@]1(C)CCCC=CCCC[C@@](C)(C(=O)N[C@@H](CCCNC(=N)N)C(=O)N[C@@H](CC(C)C)C(=O)NCC(=O)N[C@@H](CC(=O)O)C(=O)N[C@@H](CCC(=O)O)C(=O)N[C@H](C(=O)N[C@@H](CC(N)=O)C(=O)N[C@@H](C)C(=O)N[C@@H](Cc2ccc(O)cc2)C(=O)N[C@@H](Cc2ccc(O)cc2)C(=O)N[C@@H](C)C(=O)N[C@@H](CCCNC(=N)N)C(=O)N[C@@H](CCCNC(=N)N)C(N)=O)[C@@H](C)CC)NC(=O)[C@H](CC(C)C)NC(=O)CNC(=O)[C@H](CCC(N)=O)NC1=O [peptide 3, IWNleXQGLXRLGDEINAYYARR] (Ac-IW[Nle][S5]QGL[S5]RLGDEINAYYARR-NH2; staple 4-8; N-terminus assumed), the “selectivity for Mcl-1 over Bcl-xL, Bcl-2, Bclw and Bfl 1 (in words)” value (Mcl-1 [2]) is reported as “greatest selectivity for Mcl-1”, the “LDH release, membrane disruption (in words)” value (MEF cells) is reported as “membrane-disruptive” and the “alpha-helical content (in words)” value [3] is reported as “highest alpha-helical content”. The “disruption of Bak/Mcl-1 interaction (in words)” value [4] was “interaction between Bak and Mcl-1 was disrupted”.

In the case of CC[C@H](C)[C@H](NC(=O)[C@H](CCCCN)NC(=O)[C@H](CCCNC(=N)N)NC(=O)[C@H](CC(C)C)NC(=O)[C@H](CCC(N)=O)NC(=O)[C@H](C)NC(=O)[C@H](C)NC(=O)[C@H](Cc1ccccc1)NC(=O)[C@H](CCC(=O)O)NC(=O)[C@@H]1CCCN1C(=O)[C@@H]1CCCN1C(=O)[C@H](CC(C)C)NC(=O)[C@H](CCC(=O)O)NC(=O)[C@H](C)NC(C)=O)C(=O)NCC(=O)N[C@@H](CC(=O)O)C(=O)N[C@@H](CCCCN)C(=O)N[C@H](C(=O)N[C@@H](Cc1ccc(O)cc1)C(=O)N[C@@H](CS)C(N)=O)C(C)C [NoxaA], the “no binding up to (Bfl-1)” value (Bfl-1) is given as over 2500 nM, the EC50 (MDA-MB-231 cells) is given as over 100 µM and the EC50 (Bcl-2/Myc 2924 cells) is given as over 100 µM. For the same molecule, the EC50 (Mcl-1/Myc 2640 cells) was 20 µM, the EC50 [5] was over 100 µM and the “binding to Mcl-1 in competition assay (in words)” value (Mcl-1 [6]) was “very weak”. For the same molecule, the “no binding up to (Bcl-xL)” value (Bcl-xL) was over 2500 nM, the “no binding up to (Bcl-2)” value (Bcl-2) was over 2500 nM and the “no binding up to (Bcl-w)” value (Bcl-w) was over 2500 nM.
